Test results taken from the NIST ThermoML archive (doi:10.1021/je100581m).
Where “and” joins values, the source holds several entries; their conditions need not be identical. Equal entries are not always repeated. Numbers after ± are expanded uncertainties.

How the values were obtained:
[1] = Liquid, Vibrating tube method
[2] = xn = mol fraction of the nth substance listed; conditions: Liquid, Vibrating tube method, x1 = 1

Row | Compound | mass density ([1]; 283.15 K, 100 kPa) | mass density ([1]; 283.15 K, 5000 kPa) | mass density ([1]; 283.15 K, 10000 kPa) | mass density ([1]; 283.15 K, 20000 kPa) | mass density ([1]; 298.15 K, 100 kPa) | mass density ([1]; 298.15 K, 5000 kPa) | mass density ([1]; 298.15 K, 10000 kPa) | mass density ([1]; 298.15 K, 15000 kPa) | mass density ([1]; 298.15 K, 20000 kPa) | mass density ([1]; 313.15 K, 100 kPa) | mass density ([1]; 313.15 K, 5000 kPa) | mass density ([1]; 313.15 K, 10000 kPa) | mass density ([1]; 313.15 K, 15000 kPa) | mass density ([1]; 313.15 K, 20000 kPa) | mass density ([1]; 328.15 K, 100 kPa) | mass density ([1]; 328.15 K, 5000 kPa) | mass density ([1]; 328.15 K, 15000 kPa) | mass density ([1]; 328.15 K, 20000 kPa) | mass density ([1]; 283.15 K, 15000 kPa) | mass density ([1]; 328.15 K, 10000 kPa) | also measured
1 | CC(C)O [propan-2-ol] | 793.7 ± 1 kg/m3 | 797.5 ± 1 kg/m3 | 801.3 ± 1 kg/m3 | 808.9 ± 1 kg/m3 | 781.2 ± 1 kg/m3 | 785.5 ± 1 kg/m3 | 789.7 ± 1 kg/m3 | 793.8 ± 1 kg/m3 | 797.6 ± 1 kg/m3 | 768.1 ± 1 kg/m3 | 773 ± 1 kg/m3 | 777.5 ± 1 kg/m3 | 781.9 ± 1 kg/m3 | 786.1 ± 1 kg/m3 | 754.4 ± 1 kg/m3 | 759.6 ± 1 kg/m3 | 769.5 ± 1 kg/m3 | 774 ± 1 kg/m3 |  |  | mass density ([1]; 283.18 K, 15000 kPa): 805.2 ± 1 kg/m3; mass density ([1]; 328.18 K, 10000 kPa): 764.8 ± 1 kg/m3
2 | CCO [ethanol] | 797.7 ± 1 kg/m3 | 801.8 ± 1 kg/m3 | 805.6 ± 1 kg/m3 | 813.1 ± 1 kg/m3 | 784.9 ± 1 kg/m3 | 789.3 ± 1 kg/m3 | 793.6 ± 1 kg/m3 | 797.7 ± 1 kg/m3 | 801.6 ± 1 kg/m3 | 771.9 ± 1 kg/m3 | 776.8 ± 1 kg/m3 | 781.3 ± 1 kg/m3 | 785.7 ± 1 kg/m3 | 789.9 ± 1 kg/m3 | 758.6 ± 1 kg/m3 | 763.8 ± 1 kg/m3 | 773.6 ± 1 kg/m3 | 778.1 ± 1 kg/m3 | 809.6 ± 1 kg/m3 | 768.9 ± 1 kg/m3 | 
3 | CCCO [propan-1-ol] | 810.9 ± 1 kg/m3 | 814.7 ± 1 kg/m3 | 818.1 ± 1 kg/m3 | 824.9 ± 1 kg/m3 | 799 ± 1 kg/m3 | 803 ± 1 kg/m3 | 806.9 ± 1 kg/m3 | 810.6 ± 1 kg/m3 | 814.1 ± 1 kg/m3 | 786.8 ± 1 kg/m3 | 791.2 ± 1 kg/m3 | 795.3 ± 1 kg/m3 | 799.3 ± 1 kg/m3 | 803.1 ± 1 kg/m3 | 774.5 ± 1 kg/m3 | 779.1 ± 1 kg/m3 | 787.8 ± 1 kg/m3 | 791.9 ± 1 kg/m3 | 821.7 ± 1 kg/m3 | 783.7 ± 1 kg/m3 | 
4 | CC(C)O [propan-2-ol] + C=CC(C)(O)CCC=C(C)C |  |  |  |  |  |  |  |  |  |  |  |  |  |  |  |  |  |  |  |  | mass density ([2]; 283.15 K, 100 kPa): 793.7 ± 1 kg/m3; mass density ([2]; 283.15 K, 5000 kPa): 797.5 ± 1 kg/m3; mass density ([2]; 283.15 K, 10000 kPa): 801.3 ± 1 kg/m3; mass density ([2]; 283.15 K, 20000 kPa): 808.9 ± 1 kg/m3; mass density ([2]; 283.18 K, 15000 kPa): 805.2 ± 1 kg/m3; mass density ([2]; 298.15 K, 100 kPa): 781.2 ± 1 kg/m3; mass density ([2]; 298.15 K, 5000 kPa): 785.5 ± 1 kg/m3; mass density ([2]; 298.15 K, 10000 kPa): 789.7 ± 1 kg/m3; mass density ([2]; 298.15 K, 15000 kPa): 793.8 ± 1 kg/m3; mass density ([2]; 298.15 K, 20000 kPa): 797.6 ± 1 kg/m3; mass density ([2]; 313.15 K, 100 kPa): 768.1 ± 1 kg/m3; mass density ([2]; 313.15 K, 5000 kPa): 773 ± 1 kg/m3; mass density ([2]; 313.15 K, 10000 kPa): 777.5 ± 1 kg/m3; mass density ([2]; 313.15 K, 15000 kPa): 781.9 ± 1 kg/m3; mass density ([2]; 313.15 K, 20000 kPa): 786.1 ± 1 kg/m3; mass density ([2]; 328.15 K, 100 kPa): 754.4 ± 1 kg/m3; mass density ([2]; 328.15 K, 5000 kPa): 759.6 ± 1 kg/m3; mass density ([2]; 328.15 K, 15000 kPa): 769.5 ± 1 kg/m3; mass density ([2]; 328.15 K, 20000 kPa): 774 ± 1 kg/m3; mass density ([2]; 328.18 K, 10000 kPa): 764.8 ± 1 kg/m3
5 | CCO [ethanol] + C=CC(C)(O)CCC=C(C)C |  |  |  |  |  |  |  |  |  |  |  |  |  |  |  |  |  |  |  |  | mass density ([2]; 283.15 K, 100 kPa): 797.7 ± 1 kg/m3; mass density ([2]; 283.15 K, 5000 kPa): 801.8 ± 1 kg/m3; mass density ([2]; 283.15 K, 10000 kPa): 805.6 ± 1 kg/m3; mass density ([2]; 283.15 K, 15000 kPa): 809.6 ± 1 kg/m3; mass density ([2]; 283.15 K, 20000 kPa): 813.1 ± 1 kg/m3; mass density ([2]; 298.15 K, 100 kPa): 784.9 ± 1 kg/m3; mass density ([2]; 298.15 K, 5000 kPa): 789.3 ± 1 kg/m3; mass density ([2]; 298.15 K, 10000 kPa): 793.6 ± 1 kg/m3; mass density ([2]; 298.15 K, 15000 kPa): 797.7 ± 1 kg/m3; mass density ([2]; 298.15 K, 20000 kPa): 801.6 ± 1 kg/m3; mass density ([2]; 313.15 K, 100 kPa): 771.9 ± 1 kg/m3; mass density ([2]; 313.15 K, 5000 kPa): 776.8 ± 1 kg/m3; mass density ([2]; 313.15 K, 10000 kPa): 781.3 ± 1 kg/m3; mass density ([2]; 313.15 K, 15000 kPa): 785.7 ± 1 kg/m3; mass density ([2]; 313.15 K, 20000 kPa): 789.9 ± 1 kg/m3; mass density ([2]; 328.15 K, 100 kPa): 758.6 ± 1 kg/m3; mass density ([2]; 328.15 K, 5000 kPa): 763.8 ± 1 kg/m3; mass density ([2]; 328.15 K, 10000 kPa): 768.9 ± 1 kg/m3; mass density ([2]; 328.15 K, 15000 kPa): 773.6 ± 1 kg/m3; mass density ([2]; 328.15 K, 20000 kPa): 778.1 ± 1 kg/m3
6 | CCCO [propan-1-ol] + C=CC(C)(O)CCC=C(C)C |  |  |  |  |  |  |  |  |  |  |  |  |  |  |  |  |  |  |  |  | mass density ([2]; 283.15 K, 100 kPa): 810.9 ± 1 kg/m3; mass density ([2]; 283.15 K, 5000 kPa): 814.7 ± 1 kg/m3; mass density ([2]; 283.15 K, 10000 kPa): 818.1 ± 1 kg/m3; mass density ([2]; 283.15 K, 15000 kPa): 821.7 ± 1 kg/m3; mass density ([2]; 283.15 K, 20000 kPa): 824.9 ± 1 kg/m3; mass density ([2]; 298.15 K, 100 kPa): 799 ± 1 kg/m3; mass density ([2]; 298.15 K, 5000 kPa): 803 ± 1 kg/m3; mass density ([2]; 298.15 K, 10000 kPa): 806.9 ± 1 kg/m3; mass density ([2]; 298.15 K, 15000 kPa): 810.6 ± 1 kg/m3; mass density ([2]; 298.15 K, 20000 kPa): 814.1 ± 1 kg/m3; mass density ([2]; 313.15 K, 100 kPa): 786.8 ± 1 kg/m3; mass density ([2]; 313.15 K, 5000 kPa): 791.2 ± 1 kg/m3; mass density ([2]; 313.15 K, 10000 kPa): 795.3 ± 1 kg/m3; mass density ([2]; 313.15 K, 15000 kPa): 799.3 ± 1 kg/m3; mass density ([2]; 313.15 K, 20000 kPa): 803.1 ± 1 kg/m3; mass density ([2]; 328.15 K, 100 kPa): 774.5 ± 1 kg/m3; mass density ([2]; 328.15 K, 5000 kPa): 779.1 ± 1 kg/m3; mass density ([2]; 328.15 K, 10000 kPa): 783.7 ± 1 kg/m3; mass density ([2]; 328.15 K, 15000 kPa): 787.8 ± 1 kg/m3; mass density ([2]; 328.15 K, 20000 kPa): 791.9 ± 1 kg/m3
7 | C=CC(C)(O)CCC=C(C)C (configuration not stated) [3,7-dimethyl-1,6-octadien-3-ol] | 869.2 ± 1.1 kg/m3 and 869.5 ± 1.1 kg/m3 | 872.3 ± 1.1 kg/m3 and 872.6 ± 1.1 kg/m3 | 875.2 ± 1.2 kg/m3 and 875.7 ± 1.2 kg/m3 | 881 ± 1.2 kg/m3 and 881.5 ± 1.2 kg/m3 | 856.9 ± 1.1 kg/m3 and 857.3 ± 1.1 kg/m3 | 860.1 ± 1.1 kg/m3 and 860.6 ± 1.1 kg/m3 | 863.5 ± 1.2 kg/m3 and 863.9 ± 1.2 kg/m3 | 866.6 ± 1.2 kg/m3 and 867 ± 1.2 kg/m3 | 869.6 ± 1.2 kg/m3 and 870 ± 1.2 kg/m3 | 844.1 ± 1.1 kg/m3 and 844.5 ± 1.1 kg/m3 | 847.8 ± 1.1 kg/m3 and 848.2 ± 1.1 kg/m3 | 851.3 ± 1.1 kg/m3 and 851.6 ± 1.1 kg/m3 | 854.8 ± 1.2 kg/m3 and 855 ± 1.2 kg/m3 | 858.1 ± 1.2 kg/m3 and 858.4 ± 1.2 kg/m3 | 831.3 ± 1.1 kg/m3 and 831.7 ± 1.1 kg/m3 | 835.2 ± 1.1 kg/m3 and 835.6 ± 1.1 kg/m3 | 842.7 ± 1.2 kg/m3 and 843.1 ± 1.2 kg/m3 | 846.3 ± 1.2 kg/m3 and 846.7 ± 1.2 kg/m3 | 878.2 ± 1.2 kg/m3 and 878.7 ± 1.2 kg/m3 | 839.1 ± 1.1 kg/m3 and 839.5 ± 1.1 kg/m3 | mass density ([1]; 283.18 K, 15000 kPa): 878.7 ± 1.2 kg/m3; mass density ([1]; 328.18 K, 10000 kPa): 839.5 ± 1.1 kg/m3
